Measurements from patent US20230067910A1, “NOVEL COMPOUNDS FOR THE DIAGNOSIS, TREATMENT AND PREVENTION OF DISEASES ASSOCIATED WITH THE AGGREGATION OF ALPHA-SYNUCLEIN” (MODAG GMBH, priority 2019, published 2023).

Key:
[1] = target: T1, aggregated tau46 (Homo sapiens, UniProt P10636); assay: Saturation binding assay, protocol 2a, tau46 fibrils; details: saturation assay protocol 2a, [3H]-labeled compound
T1 construct: made in house; host or cells: E. coli
Description: (§1) Alpha-synuclein and tau46 were purified from E. coli according to established protocols (Nuscher B, et al., J. Biol. Chem., 2004; 279(21):21966-75), Aβ1-42 was obtained from rPeptide, Watkinsville, Ga., USA. Fibrils were prepared by aggregation of recombinant protein via constant agitation. In detail, 70 μM of alpha-synuclein mixed with 100 mM NaCl in 50 mM Tris, pH 7.0+0.02% NaN3 were incubated at 1,400 rpm, 37° C. for 96 h. 10 μM of tau46 were incubated with 0.03 mg/ml heparin in 50 mM Tris, pH=7.0 at 1,000 rpm, 37° C. for 72 h. Aβ1-42 was solved in 20 mM NaPi, pH=8.0+0.2 mM EDTA+0.02% NaN3 (Deeg A A, et al., Biochim. Biophys. Acta, 2015; 1850(9): 1884-90; Goedert M, et al. Nature, 1996; 383(6600): 550-3).
(§2) Sonicated αSYN (0.04 μM) or tau46 (0.4 μM) or Aβ1-42 (6 μM) fibrils diluted in PBS were incubated with decreasing concentrations of [^3H]-labeled compound (48 nM or 24 nM-[…]) in 50 mM Tris-base, 10% ethanol, 0.05% Tween20, pH 7.4. […]
(§3) Assay plates were incubated under agitation at 37° C. for 2 h, covered by plastic foil (Resealable tape, PerkinElmer, Waltham, Mass., USA). […] Accumulation of tritium was counted in a liquid scintillation counter (Wallac MicroBeta® TriLux, 1450 LSC & Luminescence Counter, PerkinElmer, Waltham, Mass., USA) immediately. Radioactivity was plotted against the increasing tritium-labeled compound or cold compound concentrations. […]

[2] = target: T2, aggregated Abeta (Homo sapiens, UniProt P05067); assay: Saturation binding assay, protocol 2a, Abeta fibrils; details: saturation assay protocol 2a, [3H]-labeled compound
T2 construct: Aβ1-42 was obtained from rPeptide; purchased rPeptide, Watkinsville, Ga., USA
T2 sequence (P05067 672-713 limits assumed): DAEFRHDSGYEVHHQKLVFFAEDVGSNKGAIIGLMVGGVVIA
Description: as §1, §2, §3

[3] = In vivo biodistribution of [11C]-labeled compounds, small animal PET; details: [11C]-labeled compound, intravenous tail vein, mice; for half-life: mouse, brain, read-out: Clearance half-life (brain)
Description: [^11C]-labeled compound 1 and compound 2, respectively, were injected intravenously in the tail vein of mice. Mice were then imaged in a small animal PET instrument. For both compounds, a good blood-brain-barrier penetration with SUV values >1.5 was observed.

[4] = target: T3, aggregated alpha-synuclein (Homo sapiens, UniProt P37840); assay: Modified saturation binding assay, protocol 2b, alpha-synuclein fibrils; details: saturation assay protocol 2b, sonicated fibrils 15 nM/well
T3 construct: made in house; host or cells: E. coli
Description: as §1, with “Aβ1-42 was solved in 20 mM NaPi, pH=8.0+0.2 mM EDTA+0.02% NaN3 (Deeg A A, et al., Biochim. Biophys. Acta, 2015; 1850(9): 1884-90; Goedert M, et al. Nature, 1996; 383(6600): 550-3).” left out
For saturation binding assays, a fixed concentration of sonicated human recombinant αSYN (15 nM/well) or tau46 (250 nM/well) or Aβ1-42 (1 μM/well) fibrils diluted in phosphate buffered saline (PBS) were incubated in low binding plates (96 well micro test plate, Ratiolab GmbH, Dreieich, Germany) with [H]-compound 1 or [PH]-compound 2 at increasing concentrations (from 0.05 nM to 12 nM/24 nM) in 30 mM Tris HCl, 10% ethanol, 0.05% Tween20, pH 7.4 (hereafter referred to as incubation buffer) in a total volume of 200 μL/well. Non-specific binding of the radiotracer was determined by coincubation with 400 nM non-labeled compound 1 or compound 2. The optimal fibril concentrations were determined using a concentration determination assay. […]

T1 sequence (P10636 1-412 isoform P10636-7): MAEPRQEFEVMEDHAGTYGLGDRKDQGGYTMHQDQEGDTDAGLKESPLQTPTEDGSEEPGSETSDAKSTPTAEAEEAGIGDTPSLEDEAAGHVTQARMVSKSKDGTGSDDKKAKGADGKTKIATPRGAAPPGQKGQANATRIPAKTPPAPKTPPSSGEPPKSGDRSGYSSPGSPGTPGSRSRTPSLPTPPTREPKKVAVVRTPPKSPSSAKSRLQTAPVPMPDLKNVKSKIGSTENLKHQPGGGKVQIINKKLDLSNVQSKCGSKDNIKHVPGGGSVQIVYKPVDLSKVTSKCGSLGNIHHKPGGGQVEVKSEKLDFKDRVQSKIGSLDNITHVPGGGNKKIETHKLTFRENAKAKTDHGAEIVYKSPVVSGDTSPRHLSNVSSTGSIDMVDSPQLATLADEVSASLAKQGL

Kd [1] [nM]	Kd [2] [nM]	Washout from the brain [3]	half-life [3] [min]	Kd [4] [nM]	Structure (SMILES)
> 5	> 100	rapid washout from the brain	12	0.6	CN(C)c1ccc(-c2cc(-c3ccnc(Br)c3)[nH]n2)cc1 [Compound 1, 4-[3-(4-dimethylamino-phenyl)-1H-pyrazol-5-yl]-2-bromopyridine]
> 15	> 100	rapid washout from the brain	9	0.2	CNc1ccc(-c2cc(-c3ccnc(Br)c3)[nH]n2)cc1 [Compound 2, 4-[5-(2-bromopyridin-4-yl)-1H-pyrazol-3-yl]-N-methylaniline]
